# Test results published in publication PMC8838037, “Design, Synthesis and Molecular Docking Study of Novel 3-Phenyl-β-Alanine-Based Oxadiazole Analogues as Potent Carbonic Anhydrase II Inhibitors” (Molecules, 2022).
# Biological target: T1, bovine erythrocyte CA-II (Bos taurus, UniProt P00921)
# T1 construct: purified bovine erythrocyte CA-II; from tissue; host or cells: bovine erythrocytes
# Experiment: Carbonic anhydrase II inhibition assay (colorimetric, 4-nitrophenyl acetate substrate)
# Type: biochemical
# Conditions: for IC50: N/A = Not active; for % Inhibition: test concentration not given
# Protocol: 20 µL of tested compounds were incubated with the enzyme carbonic anhydrase II (EC 4.2.1.1) for 15 min in 96-well flat bottom plate. The rate of product formation was monitored with the addition of 20 µL of 4-NPA as substrate, prepared in ethanol at the final concentration of 0.7 mM at 25 °C for 30 min with regular intervals of 1 min, by using spectrophotometer (xMark^TM Microplate, Bio-Rad, Hercules, CA, USA). HEPES-tris was used as a buffer for the reaction at the final concentration of 20 mM at pH 7.4.
# T1 sequence (P00921 2-260): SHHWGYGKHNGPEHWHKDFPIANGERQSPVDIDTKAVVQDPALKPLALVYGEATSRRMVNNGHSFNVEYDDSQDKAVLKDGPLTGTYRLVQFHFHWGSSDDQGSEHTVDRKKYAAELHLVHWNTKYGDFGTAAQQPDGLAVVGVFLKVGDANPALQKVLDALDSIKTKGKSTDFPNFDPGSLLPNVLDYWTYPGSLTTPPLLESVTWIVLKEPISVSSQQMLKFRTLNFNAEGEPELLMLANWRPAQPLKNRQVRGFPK
Molecule,IC50 [µM],% Inhibition [%]
"COc1ccc(OC)c(-c2nnc(C[C@H](NC(=O)OC(C)(C)C)c3ccccc3)o2)c1 [Compound 4k, Tert-Butyl (S)-(2-(5-(2,5-dimethoxyphenyl)-1,3,4-oxadiazol-2-yl)-1-phenylethyl) carbamate]",22.4 ± 1.43,87.8
"CC(C)(C)OC(=O)N[C@@H](Cc1nnc(-c2ccccn2)o1)c1ccccc1 [Compound 4a, Tert-Butyl (S)-(1-phenyl-2-(5-(pyridin-2-yl)-1,3,4-oxadiazol-2-yl)ethyl) carbamate]",12.1 ± 0.86,96.2
"COc1ccc(-c2nnc(C[C@H](NC(=O)OC(C)(C)C)c3ccccc3)o2)cc1OC [Compound 4j, Tert-Butyl (S)-(2-(5-(3,4-dimethoxyphenyl)-1,3,4-oxadiazol-2-yl)-1-phenylethyl) carbamate]",26.6 ± 1.47,96.7
"CC(C)(C)OC(=O)N[C@@H](Cc1nnc(-c2ccc(O)cc2)o1)c1ccccc1 [Compound 4i, Tert-Butyl (S)-(2-(5-(4-hydroxyphenyl)-1,3,4-oxadiazol-2-yl)-1-phenylethyl) carbamate]",18.1 ± 1.31,58.0
"CC(C)(C)OC(=O)N[C@@H](Cc1nnc(-c2ccccc2O)o1)c1ccccc1 [Compound 4b, Tert-Butyl (S)-(2-(5-(2-hydroxyphenyl)-1,3,4-oxadiazol-2-yl)-1-phenylethyl) carbamate]",19.1 ± 0.88,93.5
"CC(C)(C)OC(=O)N[C@@H](Cc1nnc(-c2ccc(Cl)cc2)o1)c1ccccc1 [Compound 4l, Tert-Butyl (S)-(2-(5-(4-chlorophenyl)-1,3,4-oxadiazol-2-yl)-1-phenylethyl) carbamate]",53.6 ± 0.96,67.6
"Tert-Butyl(S)-(2-(5-(4-methoxyphenyl)-1,3,4-oxadiazol-2-yl)-1-phenylethyl) carbamate [Compound 4d]",–,29.0
"Tert-Butyl(S)-(1-phenyl-2-(5-phenyl-1,3,4-oxadiazol-2-yl)ethyl) carbamate [Compound 4c]",13.8 ± 0.64,95.5
